In paper PMC6200635 (ACS infectious diseases, 2018):
Where two headings read alike, the source gives them in different places.

How the values were obtained:
[1] = test system: T. gondii tachyzoites (ME49-FLUC) in HeLa cells; experiment: Luciferase based growth assay, multi-point dose response; type: cell-based; details: Toxoplasma gondii, 72 h
[2] = test system: GFP-LC3 recruitment to the T. gondii parasite-containing vacuole in GFP-LC3 HeLa cells; experiment: Image based GFP-LC3 recruitment assay; type: cell-based, Toxoplasma gondii; details: IFN-γ 50 U/mL, HeLa cells activated 24 h, 6 h post-infection

## CCc1nc(N)nc(N)c1-c1ccc(Cl)cc1 [Pyrimethamine]
[1]; read-out: EC50+ IFN-γ
  EC50: 200 nM
[1]; read-out: EC50 Naïve
  EC50: 160 nM

B1: IFN-γ: recombinant human IFN-γ (R&D Systems, 285-IF-100/CF) (protein, UniProt P01579 24-161, looked up)
Interferon gamma: QDPYVKEAENLKKYFNAGHSDVADNGTLFLGILKNWKEESDRKIMQSQIVSFYFKLFKNFKDDQSIQKSVETIKEDMNVKFFNSNKKKRDDFEKLTNYSVTDLNVQRKAIHELIQVMAELSPAAKTGKRKRSQMLFRG
[2]
  GFP-LC3 positive parasite-containing vacuoles: 12.4%
